According to patent US20190382396A1, “SALTS OF BICYCLO[1.1.1]PENTANE INHIBITORS OF DUAL LEUCINE ZIPPER (DLK) KINASE FOR THE TREATMENT OF DISEASE” (Board of Regents, The University of Texas System, priority 2018, published 2019):
In brackets after ≈: the same amount, converted by molar mass. Where two headings read alike, the source gives them in different places.

Columns and labels:
Assay type in all cases: physicochemical
[1] = Dynamic vapor sorption (DVS), hygroscopicity
Experimental: Dynamic vapor sorption (“DVS”) was performed at 25° C., using approx 10-15 mg of sample and N2 gas at a flow rate of 200 mL/min, dm/dt=0.01% min, minimum dm/dt stability duration of 10 min, max equilibration time of 180 min, drying at 0% RH for 120 min, scanning from 0% RH to 90% RH to 0% RH with a step size of 10% RH.
Total cycling time varied, but in all cases was about 200-250 min.

[2] = Thermogravimetric analysis / DSC weight loss; conditions: <120° C.
Experimental: Differential scanning calorimetry (“DSC”) was performed with a TA Q2000 instrument, using approx 1 mg of sample in a crimped Al pan, heating from room temperature to 300° C. at a rate of 10° C./min.
Thermogravimetric analysis (“TGA”) was performed with a TA Q5000 instrument, using approx 2-5 mg of sample in an open Pt pan, heating from room temperature to 300° C. at a rate of 10° C./min.

[3] = Solubility in physiologically relevant solutions (SGF, FaSSIF, FeSSIF); conditions: 25±0.5° C.; for solubility at 24 h: 25 °C, thermodynamic from solid
Experimental: Solubility of the free base 1 and the selected salts 8, 9, 10, and 11 in physiologically relevant solutions were examined. For each material, aliquots were added to 2 ml vials containing 500 uL of either SGF, FaSSIF, or FeSSIF, which were then sealed. The mixtures were kept shaking by thermomixer at 700 rpm, 25±0.5° C. for 24 h to facilitate the dissolution and then centrifuged by 96-well plates at 3000 rpm for 2 min. The filter liquors were diluted with diluents (ACN/water, 50/50) and analyzed by HPLC.

[4] = Stability (50° C., 40° C./75% RH, light; 1 week); conditions: for XRPD change? / purity: bulk, 1 week
Experimental: The stability of the free base 1 and the selected salts 8, 9, 10, and 11 was evaluated. For each material, aliquots were set up at each of conditions (50° C., 40° C./75% RH, light) at given time points (initial and 1 week). PXRD diffractograms of the hydrogen fumarate salt 11 is shown in FIG. 17, with trace (a) showing the initial salt, trace (b) showing the salt after light treatment, trace (c) showing the salt after storage at 40° C. and 75% relative humidity for 1 week, and (d) showing the salt after storage at 50° C. for 1 week.

[5] = Solubility of the Example 1 compound in organic solvents; conditions: thermodynamic from solid; for solubility at 2 h: 25 °C, RT; for solubility: 50° C.
Experimental: Solubility of the Example 1 compound in various organic solvents was determined by the following procedure. […] The mixture was stirred at 800 rpm at 25° C. for 2 hr. If the compound was not dissolved completely by this time, the temperature was then raised to 50° C. and stirring at 800 rpm was continued overnight. If a solid precipitate was present, the solid precipitate was then removed by centrifugation (14,000 RPM, 5 min) and dried under vacuum at 30° C. (Method I). If a solid precipitate was not present, the solvent was removed by evaporation under vacuum at 30° C. (Method II). In either case, the resulting material was evaluated by XRPD.

[6] = aqueous with cosolvent or surfactant or cyclodextrin, 1/1 (v/v) Acetone/H2O
[7] = aqueous with cosolvent or surfactant or cyclodextrin, 1/1 (v/v) EtOH/H2O
[8] = organic solvent or mixture, ACN
[9] = organic solvent or mixture, EtOH
[10] = organic solvent or mixture, Heptane
[11] = organic solvent or mixture, MTBE
[12] = organic solvent or mixture, Toluene

Hygroscopicity (0-40% RH) ([1]; DVS, 25° C., 0-40% RH): 0.11%
Hygroscopicity (0-90% RH) ([1]; DVS, 25° C., 0-90% RH): 2.44%
Hygroscopicity; form change ([1]; form change after DVS): no change
weight loss (TGA, %) [2]: 0.29% (<120° C.)
solubility at 24 h ([3]; simulated gastric fluid, SGF, read-out: Solubility SGF Conc): 4.56 mg/mL (≈ 10.4 mM)
solubility at 24 h ([3]; FaSSIF, read-out: Solubility FaSSIF Conc): 0.0713 mg/mL (≈ 0.163 mM)
solubility at 24 h ([3]; FeSSIF, read-out: Solubility FeSSIF Conc): 0.473 mg/mL (≈ 1.08 mM)
FaSSIF pH after 24 h ([3]; FaSSIF): 6.48
FeSSIF pH after 24 h ([3]; FeSSIF): 5.00
SGF pH after 24 h ([3]; SGF): 3.83
XRPD change? ([4]; 40° C., 75% RH): yes
purity ([4]; 40° C., 75% RH): 99.66%
XRPD change? ([4]; 50° C.): yes
purity ([4]; 50° C.): 99.41%
initial purity ([4]; initial (before storage)): 99.59%
XRPD change? ([4]; light): yes (1)
purity ([4]; light): 96.61%
solubility at 2 h [5, 6]: < 50 mg/mL
solubility at 2 h [5, 7]: < 50 mg/mL
solubility at 2 h [5, 8]: < 50 mg/mL
solubility at 2 h ([5]; organic solvent or mixture, Acetone): > 50 mg/mL
solubility at 2 h ([5]; organic solvent or mixture, DCM): > 50 mg/mL
solubility at 2 h ([5]; organic solvent or mixture, DMF): > 50 mg/mL
solubility at 2 h ([5]; organic solvent or mixture, DMSO): > 50 mg/mL
solubility at 2 h ([5]; organic solvent or mixture, Dioxane): > 50 mg/mL
solubility at 2 h ([5]; organic solvent or mixture, EtOAc): > 50 mg/mL
solubility at 2 h [5, 9]: < 50 mg/mL
solubility at 2 h [5, 10]: < 50 mg/mL
solubility at 2 h ([5]; organic solvent or mixture, IPA): > 50 mg/mL
solubility at 2 h ([5]; organic solvent or mixture, MEK): > 50 mg/mL
solubility at 2 h [5, 11]: < 50 mg/mL
solubility at 2 h ([5]; organic solvent or mixture, MeOH): > 50 mg/mL
solubility at 2 h ([5]; organic solvent or mixture, THF): > 50 mg/mL
solubility at 2 h [5, 12]: < 50 mg/mL
solubility [5, 6]: < 50 mg/mL
solubility [5, 7]: < 50 mg/mL
solubility [5, 8]: > 50 mg/mL
solubility [5, 9]: > 50 mg/mL
solubility [5, 10]: < 50 mg/mL
solubility [5, 11]: < 50 mg/mL
solubility [5, 12]: < 50 mg/mL
solubility at 2 h ([5]; water, H2O): < 50 mg/mL
solubility ([5]; water, H2O): < 50 mg/mL
SMILES: CC(C)c1nc(-c2cnc(N)c(OC(F)(F)F)c2)cn1C12CC(N3CCOCC3)(C1)C2 [Example 1, 5-(2-isopropyl-1-(3-morpholinobicyclo[1.1.1]pentan-1-yl)-1H-imidazol-4-yl)-3-(trifluoromethoxy)pyridin-2-amine]
